What was measured:
[1] = biological target: T1, Potassium voltage-gated channel subfamily A member 5 (Homo sapiens, UniProt P22460); experiment: Inhibition of Kv1.5 expressed in LTK- cells by whole cell patch clamp assay at 1uM; assay type: functional, cell-based
[2] = biological target: Voltage-gated inwardly rectifying potassium channel KCNH2 (Homo sapiens, UniProt Q12809); experiment: Inhibition of hERG expressed in HEK cells by whole cell patch clamp assay; assay type: toxicity, cell-based, HEK293
[3] = biological target: T1, Potassium voltage-gated channel subfamily A member 5; experiment: Inhibition of Kv1.5 expressed in LTK- cells by whole cell patch clamp assay; assay type: functional, cell-based
[4] = organism: Homo sapiens; experiment: Selectivity for Kv1.5 compared to hERG; assay type: functional
[5] = biological target: Voltage-gated L-type calcium channel (Homo sapiens, UniProt Q13936+Q13698+Q01668+O60840); experiment: Inhibition of L-type calcium channel by FLIPR assay; assay type: functional
[6] = organism: Homo sapiens; experiment: Selectivity for Kv1.5 compared to L-type calcium channel; assay type: functional

T1 sequence (P22460 whole entry): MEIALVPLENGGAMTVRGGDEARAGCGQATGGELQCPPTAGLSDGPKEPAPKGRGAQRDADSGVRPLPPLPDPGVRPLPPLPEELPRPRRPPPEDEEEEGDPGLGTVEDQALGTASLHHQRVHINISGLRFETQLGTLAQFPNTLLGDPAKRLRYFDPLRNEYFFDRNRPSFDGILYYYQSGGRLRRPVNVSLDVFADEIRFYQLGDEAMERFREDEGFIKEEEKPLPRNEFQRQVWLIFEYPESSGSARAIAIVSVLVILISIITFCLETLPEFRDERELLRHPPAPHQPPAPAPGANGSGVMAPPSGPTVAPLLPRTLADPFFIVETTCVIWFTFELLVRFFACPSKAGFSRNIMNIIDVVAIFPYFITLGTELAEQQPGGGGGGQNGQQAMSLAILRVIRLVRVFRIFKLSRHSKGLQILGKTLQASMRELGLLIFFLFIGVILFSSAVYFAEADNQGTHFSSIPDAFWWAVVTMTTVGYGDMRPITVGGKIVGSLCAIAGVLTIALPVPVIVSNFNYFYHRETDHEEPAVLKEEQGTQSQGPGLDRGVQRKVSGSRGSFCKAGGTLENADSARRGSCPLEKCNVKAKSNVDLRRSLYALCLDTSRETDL
Voltage-gated inwardly rectifying potassium channel KCNH2, sequence (Q12809 whole entry): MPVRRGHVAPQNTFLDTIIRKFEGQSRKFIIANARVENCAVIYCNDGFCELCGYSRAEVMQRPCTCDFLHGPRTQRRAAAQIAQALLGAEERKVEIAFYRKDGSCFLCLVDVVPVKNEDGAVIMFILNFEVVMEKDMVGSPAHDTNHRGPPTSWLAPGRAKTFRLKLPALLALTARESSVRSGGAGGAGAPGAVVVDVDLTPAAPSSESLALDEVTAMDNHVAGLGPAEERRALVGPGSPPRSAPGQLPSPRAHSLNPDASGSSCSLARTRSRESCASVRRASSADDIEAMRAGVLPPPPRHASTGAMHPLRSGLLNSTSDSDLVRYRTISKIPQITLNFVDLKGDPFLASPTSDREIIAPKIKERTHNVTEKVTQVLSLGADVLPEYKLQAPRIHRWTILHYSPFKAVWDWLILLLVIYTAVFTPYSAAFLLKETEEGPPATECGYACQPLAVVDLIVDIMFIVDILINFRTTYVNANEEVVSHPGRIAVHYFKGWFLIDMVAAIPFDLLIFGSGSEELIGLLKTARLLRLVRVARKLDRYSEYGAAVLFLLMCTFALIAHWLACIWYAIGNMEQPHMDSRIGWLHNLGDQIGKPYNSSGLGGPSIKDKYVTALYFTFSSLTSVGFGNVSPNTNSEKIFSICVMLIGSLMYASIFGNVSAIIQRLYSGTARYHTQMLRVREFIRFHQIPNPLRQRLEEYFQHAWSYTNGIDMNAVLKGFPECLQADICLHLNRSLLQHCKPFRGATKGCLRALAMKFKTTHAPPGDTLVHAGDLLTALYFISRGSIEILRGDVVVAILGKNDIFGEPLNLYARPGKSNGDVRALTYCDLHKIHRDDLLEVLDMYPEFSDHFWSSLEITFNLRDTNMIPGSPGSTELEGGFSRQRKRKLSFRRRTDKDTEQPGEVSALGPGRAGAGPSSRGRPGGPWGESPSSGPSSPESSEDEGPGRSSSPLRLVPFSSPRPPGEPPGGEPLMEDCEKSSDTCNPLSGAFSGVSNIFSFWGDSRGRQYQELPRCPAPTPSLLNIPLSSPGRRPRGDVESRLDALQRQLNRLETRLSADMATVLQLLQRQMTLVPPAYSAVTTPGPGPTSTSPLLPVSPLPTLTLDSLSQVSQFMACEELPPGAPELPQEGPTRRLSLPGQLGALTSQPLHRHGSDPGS

How did the inhibition [1] turn out when `Cc1[nH]c2c(c1C)/C(=N/OC(=O)Nc1ccccc1)CCC2` was run?
Its inhibition is 57%.

Which inhibition [1] does the source give for `CCc1c(C)[nH]c2c1/C(=N/OC(=O)Nc1ccc(C(C)(C)C)cc1)CCC2` here?
Its inhibition is 6%.

With `CCc1c2c(n(C)c1CC)CCC/C2=N\OC(=O)Nc1ccccc1` as the compound, how does the IC50 [2] read?
The IC50 was over 30 µM.

And the IC50 [3]?
The IC50 was 0.021 µM.

What about the inhibition [1] of the same compound?
The inhibition was 99%.

And the Ratio [4]?
The Ratio was over 450.

And the IC50 [5]?
Its IC50 is 20 µM.

What about the Ratio [6] of the same compound?
Its Ratio is over 450.

For `CCc1c2c(n(CC)c1C)CCC/C2=N\OC(=O)Nc1ccc(C(C)=O)cc1`, which inhibition [1] is on record?
The inhibition was 71%.

Which inhibition [1] does the source give for `CC(=O)c1ccc(NC(=O)O/N=C2\CCCC3=C2C2CCCC2N3)cc1` (stereo unspecified) here?
Its inhibition is 79%.

`CCc1c(C)[nH]c2c1/C(=N/OC(=O)Nc1ccc(C)cc1)CCC2` was tested. Which inhibition [1] did it give?
The inhibition was 85%.

How did the inhibition [1] turn out when `CCc1[nH]c2c(c1CC)/C(=N/OC(=O)Nc1ccc(Cl)cc1)CCC2` was run?
Its inhibition is 87%.

For `Cc1[nH]c2c(c1C)/C(=N/OC(=O)Nc1ccc(Cl)cc1)CCC2`, which inhibition [1] is on record?
Its inhibition is 78%.

For `CCc1[nH]c2c(c1CC)/C(=N/OC(=O)Nc1ccccc1)CCC2`, which inhibition [1] is on record?
Its inhibition is 84%.

`O=C(Nc1ccccc1)O/N=C1\CCCC2=C1C1CCCC1N2` (stereo unspecified) was tested. Which inhibition [1] did it give?
Its inhibition is 79%.

What does the source list for `CCc1c(C)[nH]c2c1/C(=N/OC(=O)Nc1ccc(SC)cc1)CCC2`?
IC50 [3]: 0.35 µM; inhibition [1]: 90%

With `CCc1c2c(n(CC)c1C)CCC/C2=N\OC(=O)Nc1ccccc1` as the compound, how does the inhibition [1] read?
The inhibition was 35%.

With `CCc1c2c(n(C)c1CC)CCC/C2=N\OC(=O)Nc1ccc(C(C)=O)cc1` as the compound, how does the inhibition [1] read?
Its inhibition is 92%.

`CCc1c(C)[nH]c2c1/C(=N/OC(=O)Nc1ccc(C(C)C)cc1)CCC2` was tested. Which inhibition [1] did it give?
The inhibition was 51%.

Which inhibition [1] does the source give for `O=C(Nc1ccc(Cl)cc1)O/N=C1\CCCC2=C1C1CCCC1N2` (stereo unspecified) here?
Its inhibition is 58%.

For `CC(=O)c1ccc(NC(=O)O/N=C2\CCCc3[nH]c(C)c(C)c32)cc1`, which inhibition [1] is on record?
The inhibition was 60%.

How did the inhibition [1] turn out when `CCc1c(C)[nH]c2c1/C(=N/OC(=O)Nc1ccc(C(C)=O)cc1)CCC2` was run?
The inhibition was 91%.

With `CCc1c(C)[nH]c2c1/C(=N/OC(=O)Nc1ccc(OC)cc1)CCC2` as the compound, how does the inhibition [1] read?
The inhibition was 90%.

`CCc1c(C)[nH]c2c1/C(=N/OC(=O)NCCc1ccncc1)CCC2` was tested. Which inhibition [1] did it give?
Its inhibition is 20%.

`CCc1c(C)[nH]c2c1/C(=N/OC(=O)NCCc1ccccc1)CCC2` was tested. Which inhibition [1] did it give?
The inhibition was 76%.

`CCc1c(C)[nH]c2c1/C(=N/OC(=O)NCCc1ccccn1)CCC2` was tested. Which IC50 [3] did it give?
The IC50 was 0.547 µM.

And the inhibition [1]?
The inhibition was 91%.

Which inhibition [1] does the source give for `CCc1c(C)[nH]c2c1/C(=N/OC(=O)Nc1ccc(C#N)cc1)CCC2` here?
The inhibition was 95%.

How did the inhibition [1] turn out when `CCc1c(C)[nH]c2c1/C(=N/OC(=O)Nc1cccc(SC)c1)CCC2` was run?
Its inhibition is 73%.

How did the inhibition [1] turn out when `CCc1c2c(n(C)c1C)CCC/C2=N\OC(=O)Nc1ccccc1` was run?
Its inhibition is 77%.

How did the inhibition [1] turn out when `CCc1c(C)[nH]c2c1/C(=N/OC(=O)NCc1ccccc1)CCC2` was run?
Its inhibition is 70%.

Which inhibition [1] does the source give for `CCc1c(C)[nH]c2c1/C(=N/OC(=O)NCCc1cccnc1)CCC2` here?
The inhibition was 25%.

For `CC(=O)c1ccc(NC(=O)O/N=C2\CCCc3c2c(C(C)C)c(C)n3C)cc1`, which inhibition [1] is on record?
The inhibition was 96%.

`CCc1c(C)[nH]c2c1/C(=N/OC(=O)Nc1ccc(Cl)cc1)CCC2` was tested. Which inhibition [1] did it give?
The inhibition was 91%.

Which results are given for `CCc1c2c(n(C)c1C)CCC/C2=N\OC(=O)Nc1ccc(C(C)=O)cc1`?
IC50 [3]: 0.368 µM; inhibition [1]: 96%

With `CCc1c(C)[nH]c2c1/C(=N/OC(=O)Nc1ccc(F)cc1)CCC2` as the compound, how does the IC50 [3] read?
The IC50 was 0.275 µM.

What about the inhibition [1] of the same compound?
The inhibition was 90%.

For `CCc1c(C)[nH]c2c1/C(=N/OC(=O)Nc1ccccc1SC)CCC2`, which inhibition [1] is on record?
Its inhibition is 41%.

For `CCc1c(C)[nH]c2c1/C(=N/OC(=O)Nc1ccccc1)CCC2`, which IC50 [2] is on record?
Its IC50 is over 30 µM.

And the IC50 [3]?
The IC50 was 0.067 µM.

And the inhibition [1]?
The inhibition was 91%.

What about the Ratio [4] of the same compound?
The Ratio was over 450.

And the IC50 [5]?
Its IC50 is over 30 µM.

And the Ratio [6]?
The Ratio was over 450.

Source: ChEMBL document CHEMBL1137274, “Discovery and synthesis of tetrahydroindolone-derived carbamates as Kv1.5 blockers” (Bioorg Med Chem Lett, 2006)
